Measured values taken from ChEMBL document CHEMBL1201862, “PubChem BioAssay data set” (2004).
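Dose response: 5 concentrations. Exposure: 48 h. Format: 96-well plates. Endpoint: linear interpolation; highest concentration if not reached. GI50 marks 50% less growth.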 The source made the active and inactive calls. No stated cut-off is given here; in the data, active = GI50 up to about 1.1 µM and inactive = higher.

Key:
Assay in all cases: inhibition of tumour cell growth, NCI panel, 48 h
HCC 2998 = system: HCC 2998
NCI-H23 = system: NCI-H23
COLO 205 = system: COLO 205
RPMI-8226 = system: RPMI-8226
IGROV-1 = system: IGROV-1
OVCAR-4 = system: OVCAR-4
UACC-62 = system: UACC-62
NCI/ADR-RES = system: NCI/ADR-RES
MCF7 = system: MCF7
SF-295 = system: SF-295
RXF 393 = system: RXF 393
EKVX = system: EKVX
SK-MEL-2 = system: SK-MEL-2
OVCAR-5 = system: OVCAR-5
OVCAR-8 = system: OVCAR-8
SNB-75 = system: SNB-75
ACHN = system: ACHN
SF-268 = system: SF-268
SK-MEL-28 = system: SK-MEL-28
Malme-3M = system: Malme-3M

Measured: GI50

CC(C)CC(NC(=O)C(O)C(N)Cc1ccccc1)C(=O)O (stereo not drawn)
inactive: HCC 2998 > 100 µM | NCI-H23 > 100 µM | COLO 205 > 100 µM | RPMI-8226 > 100 µM | IGROV-1 > 100 µM | OVCAR-4 > 100 µM | UACC-62 > 100 µM | NCI/ADR-RES > 100 µM | MCF7 > 100 µM | SF-295 > 100 µM | RXF 393 > 100 µM | EKVX > 100 µM | SK-MEL-2 > 100 µM | OVCAR-5 > 100 µM | OVCAR-8 > 100 µM | SNB-75 > 100 µM | ACHN > 100 µM | SF-268 > 100 µM | SK-MEL-28 > 100 µM | Malme-3M > 100 µM

CCOP(=O)(CCCC(O)CNc1nc(N)nc(Cl)c1/N=N/c1ccc(Cl)cc1)OCC (stereo not drawn)
inactive: HCC 2998 15.4 µM | NCI-H23 12.1 µM | COLO 205 6.64 µM | RPMI-8226 2.82 µM | IGROV-1 11.9 µM | OVCAR-4 4.45 µM | UACC-62 5.13 µM | NCI/ADR-RES 10.4 µM | MCF7 11.9 µM | SF-295 7.46 µM | RXF 393 5.24 µM | EKVX 3.63 µM | SK-MEL-2 12.2 µM | OVCAR-5 10.9 µM | OVCAR-8 8.47 µM | SNB-75 3.29 µM | ACHN 4.05 µM | SF-268 4.27 µM | SK-MEL-28 8.22 µM | Malme-3M 7.64 µM

Fc1ccccc1C1SCc2nc3cc4ccccc4cc3n21 (stereo not drawn)
inactive: HCC 2998 72.6 µM | NCI-H23 > 100 µM | COLO 205 86.7 µM | RPMI-8226 > 100 µM | IGROV-1 62.5 µM | OVCAR-4 35.1 µM | UACC-62 57.9 µM | NCI/ADR-RES 49.1 µM | MCF7 22.7 µM | SF-295 34.4 µM | RXF 393 13.3 µM | EKVX 67.6 µM | SK-MEL-2 > 100 µM | OVCAR-5 > 100 µM | OVCAR-8 36.6 µM | SNB-75 31.7 µM | ACHN 28.8 µM | SF-268 45.3 µM | SK-MEL-28 54.3 µM | Malme-3M > 100 µM

NC(=O)CC(/N=C1\C(=O)OC(C(O)CO)\C1=N/C(CC(N)=O)C(=O)O)C(=O)O (stereo not drawn)
inactive: HCC 2998 > 100 µM | NCI-H23 > 100 µM | COLO 205 > 100 µM | RPMI-8226 > 100 µM | IGROV-1 > 100 µM | OVCAR-4 > 100 µM | UACC-62 > 100 µM | NCI/ADR-RES > 100 µM | MCF7 > 100 µM | SF-295 > 100 µM | RXF 393 > 100 µM | EKVX > 100 µM | SK-MEL-2 > 100 µM | OVCAR-5 > 10 µM | OVCAR-8 > 100 µM | SNB-75 > 100 µM | ACHN > 100 µM | SF-268 > 100 µM | SK-MEL-28 > 100 µM | Malme-3M > 100 µM

CCCCCCC/C=C1\CCC(CN(C)C)C1=O (stereo not drawn)
active: RPMI-8226 0.968 µM
inactive: HCC 2998 17.7 µM | NCI-H23 16.4 µM | COLO 205 10.2 µM | IGROV-1 19.1 µM | OVCAR-4 16.6 µM | UACC-62 14.6 µM | NCI/ADR-RES 2.61 µM | MCF7 3.24 µM | SF-295 16.3 µM | RXF 393 5.93 µM | EKVX 15.5 µM | SK-MEL-2 15.9 µM | OVCAR-5 19.8 µM | OVCAR-8 9.77 µM | SNB-75 18.5 µM | ACHN 17.6 µM | SF-268 17.4 µM | SK-MEL-28 16.9 µM | Malme-3M 10.8 µM

O=C1NC(=O)/C(=C/c2ccc(S(=O)(=O)N/N=C/c3ccccc3)cc2)N1
inactive: HCC 2998 > 100 µM | NCI-H23 > 100 µM | COLO 205 > 100 µM | RPMI-8226 > 100 µM | IGROV-1 > 100 µM | OVCAR-4 > 100 µM | UACC-62 > 100 µM | NCI/ADR-RES > 100 µM | MCF7 > 100 µM | SF-295 > 100 µM | RXF 393 > 100 µM | EKVX > 100 µM | SK-MEL-2 > 100 µM | OVCAR-5 > 100 µM | OVCAR-8 > 100 µM | SNB-75 > 100 µM | ACHN > 100 µM | SF-268 > 100 µM | SK-MEL-28 > 100 µM | Malme-3M > 100 µM

COc1cc(/C=C/C(=O)Oc2ccc(NC(C)=O)cc2)ccc1C(=O)OCc1ccccc1
inactive: HCC 2998 > 100 µM | NCI-H23 > 89.9 µM | COLO 205 > 100 µM | RPMI-8226 > 100 µM | IGROV-1 67.5 µM | OVCAR-4 > 96.4 µM | UACC-62 69.2 µM | NCI/ADR-RES > 100 µM | MCF7 > 86.5 µM | SF-295 40.6 µM | RXF 393 28.8 µM | EKVX > 100 µM | SK-MEL-2 53.1 µM | OVCAR-5 > 100 µM | OVCAR-8 > 88.9 µM | SNB-75 20 µM | ACHN > 73.8 µM | SF-268 56.6 µM | SK-MEL-28 > 100 µM | Malme-3M > 93.5 µM

Cc1ccc(C(=O)N/N=C(\N=N\c2cccc([N+](=O)[O-])c2)c2ccc(N(CCC#N)CCC#N)cc2C)cc1
inactive: HCC 2998 30.9 µM | NCI-H23 20.5 µM | COLO 205 4.73 µM | RPMI-8226 13 µM | IGROV-1 19.2 µM | OVCAR-4 23.7 µM | UACC-62 26.1 µM | NCI/ADR-RES 34.8 µM | MCF7 13.2 µM | SF-295 26.9 µM | RXF 393 8.75 µM | EKVX 25.5 µM | SK-MEL-2 26.9 µM | OVCAR-5 59.4 µM | OVCAR-8 23.2 µM | SNB-75 21.1 µM | ACHN 42.9 µM | SF-268 33.6 µM | SK-MEL-28 > 46.8 µM | Malme-3M 4.12 µM

O=C(O)C1C(Br)(c2ccccc2)C1(Br)c1ccccc1 (stereo not drawn)
inactive: HCC 2998 22.6 µM | NCI-H23 38.4 µM | COLO 205 13.4 µM | RPMI-8226 11.8 µM | IGROV-1 17.8 µM | OVCAR-4 28.7 µM | UACC-62 17.9 µM | NCI/ADR-RES 52.4 µM | MCF7 22 µM | SF-295 37.9 µM | RXF 393 19.5 µM | EKVX 86.7 µM | SK-MEL-2 37.5 µM | OVCAR-5 58.9 µM | OVCAR-8 23 µM | SNB-75 35.3 µM | ACHN 14.3 µM | SF-268 24.3 µM | SK-MEL-28 21.5 µM | Malme-3M 35.6 µM

O=C(Cc1csc2[n+]1C(=O)/C(=C/c1ccc(Cl)cc1)S2)Nc1ccccc1
inactive: HCC 2998 19.6 µM | NCI-H23 24.2 µM | COLO 205 14.9 µM | RPMI-8226 23.4 µM | IGROV-1 16.9 µM | OVCAR-4 30.3 µM | UACC-62 10 µM | NCI/ADR-RES 21.7 µM | MCF7 15.4 µM | SF-295 17.5 µM | RXF 393 18.3 µM | EKVX 16.3 µM | SK-MEL-2 17.9 µM | OVCAR-5 22.5 µM | OVCAR-8 40.7 µM | SNB-75 23.5 µM | ACHN 15.4 µM | SF-268 21.5 µM | SK-MEL-28 30.4 µM | Malme-3M 30.1 µM

CC1CCC2(CC1)NC1=C(CC(C)CC1)C1=C2CC(C)CC1 (stereo not drawn)
inactive: HCC 2998 18.6 µM | NCI-H23 20.8 µM | COLO 205 20.4 µM | RPMI-8226 23.3 µM | IGROV-1 31.3 µM | OVCAR-4 22.2 µM | UACC-62 > 10 µM | NCI/ADR-RES > 10 µM | MCF7 17.6 µM | SF-295 18.1 µM | RXF 393 15.8 µM | EKVX 39.1 µM | SK-MEL-2 21.8 µM | OVCAR-5 18.7 µM | OVCAR-8 23 µM | SNB-75 19.1 µM | ACHN 23.3 µM | SK-MEL-28 17.7 µM | Malme-3M 26.9 µM

N=C(N)NS(=O)(=O)c1ccc(Nc2c3ccccc3nc3c(C(=O)NCCO)cccc23)cc1
active: HCC 2998 0.19 µM | NCI-H23 0.167 µM | COLO 205 0.16 µM | RPMI-8226 0.162 µM | IGROV-1 0.141 µM | OVCAR-4 0.261 µM | UACC-62 0.167 µM | NCI/ADR-RES 0.296 µM | MCF7 0.0282 µM | SF-295 0.263 µM | RXF 393 0.173 µM | EKVX 0.248 µM | SK-MEL-2 0.199 µM | OVCAR-5 0.244 µM | OVCAR-8 0.185 µM | ACHN 0.219 µM | SF-268 0.171 µM | SK-MEL-28 0.248 µM | Malme-3M 0.156 µM
inactive: SNB-75 22.6 µM

CN(C)CCCCN1c2ccccc2Sc2ccc(N=[N+]=[N-])cc21
inactive: HCC 2998 1.66 µM | NCI-H23 13.3 µM | COLO 205 1.72 µM | RPMI-8226 2.29 µM | IGROV-1 3.08 µM | OVCAR-4 6.43 µM | UACC-62 1.88 µM | NCI/ADR-RES 9.98 µM | MCF7 2.45 µM | SF-295 5.66 µM | RXF 393 4.06 µM | EKVX 13.2 µM | SK-MEL-2 3.08 µM | OVCAR-5 3.3 µM | OVCAR-8 10 µM | SNB-75 2.62 µM | ACHN 3.2 µM | SF-268 5.97 µM | SK-MEL-28 1.91 µM | Malme-3M 1.76 µM

CN(C)c1nc2sc3c(c2c(=O)o1)CCCC3
inactive: HCC 2998 > 100 µM | NCI-H23 46.3 µM | COLO 205 23.6 µM | RPMI-8226 35.8 µM | IGROV-1 72.8 µM | OVCAR-4 27.9 µM | UACC-62 41.8 µM | NCI/ADR-RES 43 µM | MCF7 48.3 µM | SF-295 31.6 µM | RXF 393 15.5 µM | EKVX 25.5 µM | SK-MEL-2 25.3 µM | OVCAR-5 60.1 µM | OVCAR-8 31.8 µM | SNB-75 30.1 µM | ACHN 34.1 µM | SK-MEL-28 71.3 µM | Malme-3M 25.9 µM
